Assay results published in patent US20240269139A1, “COMPOUNDS FOR TARGETED PROTEIN DEGRADATION OF KINASES” (DANA-FARBER CANCER INSTITUTE, INC., priority 2020, published 2024).
Like-named read-outs stand apart in the source and are kept apart here.

Columns and labels:
[1] = target: T1, extended human kinome (kinase-like proteins) (Homo sapiens, UniProt P54886); assay: Whole cell quantitative proteomics: extended kinome hits; details: Accession P54886
T1 sequence (P54886 1-795): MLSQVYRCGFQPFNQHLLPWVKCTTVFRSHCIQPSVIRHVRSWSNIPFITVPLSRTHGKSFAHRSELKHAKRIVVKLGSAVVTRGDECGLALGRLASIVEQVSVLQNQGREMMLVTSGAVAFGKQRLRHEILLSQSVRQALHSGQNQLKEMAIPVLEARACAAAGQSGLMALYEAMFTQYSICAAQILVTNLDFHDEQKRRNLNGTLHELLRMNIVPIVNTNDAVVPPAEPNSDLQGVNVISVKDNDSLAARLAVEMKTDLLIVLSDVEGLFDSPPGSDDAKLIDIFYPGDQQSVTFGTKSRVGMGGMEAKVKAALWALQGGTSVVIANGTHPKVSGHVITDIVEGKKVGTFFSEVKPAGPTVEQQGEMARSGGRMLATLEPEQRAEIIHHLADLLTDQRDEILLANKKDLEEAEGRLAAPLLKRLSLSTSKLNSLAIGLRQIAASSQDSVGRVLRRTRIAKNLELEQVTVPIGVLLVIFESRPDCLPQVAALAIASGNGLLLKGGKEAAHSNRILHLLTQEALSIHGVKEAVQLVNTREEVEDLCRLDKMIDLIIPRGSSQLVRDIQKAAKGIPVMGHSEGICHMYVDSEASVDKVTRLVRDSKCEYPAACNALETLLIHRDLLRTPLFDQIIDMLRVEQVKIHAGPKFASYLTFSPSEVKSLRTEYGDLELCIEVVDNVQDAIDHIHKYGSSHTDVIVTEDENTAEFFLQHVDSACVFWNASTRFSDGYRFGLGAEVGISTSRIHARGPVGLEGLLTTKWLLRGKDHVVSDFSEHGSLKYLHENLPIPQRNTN
Description: Whole cell multiplexed quantitative proteomics was employed to measure changes in abundance of the proteome in response to treatment with each of the kinase degrader molecules relative to DMSO (Table 1, Appendix I).
Cells were treated with DMSO (biological triplicate) or degrader at indicated dose and time and cells were harvested by centrifugation. […] Precipitated protein was resuspended in 4 M Urea, 50 mM HEPES pH 7.4, followed by dilution to 1 M urea with the addition of 200 mM EPPS, pH 8. Proteins were first digested with LysC (1:50: enzyme:protein) for 12 hours at room temperature. The LysC digestion was diluted to 0.5 M Urea with 200 mM EPPS pH 8 followed by digestion with trypsin (1:50; enzyme:protein) for 6 hours at 37° C. Tandem mass tag (TMT) reagents (Thermo Fisher Scientific) were dissolved in anhydrous acetonitrile (ACN) according to manufacturer's instructions. […] The 10, 11, or 16-plex labeling reactions were performed for 1.5 hours at room temperature and the reaction quenched by the addition of hydroxylamine to a final concentration of 0.3% for 15 minutes at room temperature. The sample channels were combined at a 1:1 ratio, desalted using C18 solid phase extraction cartridges (Waters®) and analyzed by LC-MS for channel ratio comparison. Samples were then combined using the adjusted volumes determined in the channel ratio analysis and dried down in a speed vacuum. The combined sample was then resuspended in 1% formic acid, and acidified (pH 2-3) before being subjected to desalting with C18 SPE (Sep-Pak®, Waters®). Samples were then offline fractionated into 96 fractions by high pH reverse-phase HPLC (Agilent® LC1260) through an aeris peptide xb-c18 column (Phenomenex®) with mobile phase A containing 5% acetonitrile and 10 mM NH4HCO3 in LC-MS grade H2O, and mobile phase B containing 90% acetonitrile and 10 mM NH4HCO3 in LC-MS grade H2O (both pH 8.0). The 96 resulting fractions were then pooled in a non-continuous manner into 24 fractions and desalted using C18 solid phase extraction plates (SOLA®, Thermo Fisher Scientific) followed by subsequent mass spectrometry analysis.
Data were collected using an Orbitrap Fusion™ Lumos™ mass spectrometer (Thermo Fisher Scientific, San Jose, CA, USA) coupled with a Proxeon EASY-nLC™ 1200 LC pump (Thermo Fisher Scientific) or an Orbitrap Eclipse™ Tribrid™ mass spectrometer (Thermo Fisher Scientific, San Jose, CA, USA) coupled with an UltiMate™ 3000 RSLCnano System. Peptides were separated on an EasySpray™ ES803a/ES803a.rev2 75 μm inner diameter microcapillary column (ThermoFisher Scientific).
Data dependent MS2 spectra were acquired in the ion trap with a normalized collision energy (NCE) set at 35%, AGC target set to 1.8×10^4 and a maximum injection time of 120 ms. MS3 scans were acquired in the Orbitrap with HCD collision energy set to 55%. AGC target set to 2×10^5, maximum injection time of 150 ms, resolution at 50,000 and with a maximum synchronous precursor selection (SPS) precursors set to 10.
Proteome Discoverer™ 2.1, 2.2 or 2.4 (Thermo Fisher Scientific) was used for .RAW file processing and controlling peptide and protein level false discovery rates, assembling proteins from peptides, and protein quantification from peptides.

[2] = target: T2, protein kinases (human kinome) (Homo sapiens, UniProt Q9NYY8); type: cell-based; details: direction down
T2 sequence (Q9NYY8 1-710): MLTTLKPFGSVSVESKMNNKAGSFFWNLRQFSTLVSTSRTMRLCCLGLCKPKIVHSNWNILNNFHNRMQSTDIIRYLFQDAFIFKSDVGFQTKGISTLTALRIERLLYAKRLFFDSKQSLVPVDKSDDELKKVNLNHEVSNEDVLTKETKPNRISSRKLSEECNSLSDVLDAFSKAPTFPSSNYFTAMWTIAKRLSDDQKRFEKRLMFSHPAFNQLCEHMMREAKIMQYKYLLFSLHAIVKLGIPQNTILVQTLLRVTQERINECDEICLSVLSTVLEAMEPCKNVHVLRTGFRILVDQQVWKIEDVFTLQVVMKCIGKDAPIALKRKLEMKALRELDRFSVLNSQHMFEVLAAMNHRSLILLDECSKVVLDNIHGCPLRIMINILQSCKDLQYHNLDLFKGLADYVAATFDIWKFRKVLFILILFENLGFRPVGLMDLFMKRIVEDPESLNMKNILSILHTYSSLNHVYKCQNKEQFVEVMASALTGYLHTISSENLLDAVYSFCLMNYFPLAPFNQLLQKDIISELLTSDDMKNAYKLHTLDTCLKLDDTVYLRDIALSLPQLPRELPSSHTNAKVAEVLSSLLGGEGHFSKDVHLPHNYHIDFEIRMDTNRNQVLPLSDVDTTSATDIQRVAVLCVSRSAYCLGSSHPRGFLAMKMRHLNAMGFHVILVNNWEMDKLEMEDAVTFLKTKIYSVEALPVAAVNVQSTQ

[3] = tested on: protein kinases (human kinome); type: cell-based; details: for logFC PDK3: PDK3 (Q15120-2); for logFC ABL1: ABL1 (P00519-2); for logFC of SRC: Accession P12931-2; for logFC LCK: accession P06239-3
[4] = target: protein kinases (human kinome) (Homo sapiens, UniProt P11802); type: cell-based
Sequence of protein kinases (human kinome) (Homo sapiens, UniProt P11802) (P11802 whole entry): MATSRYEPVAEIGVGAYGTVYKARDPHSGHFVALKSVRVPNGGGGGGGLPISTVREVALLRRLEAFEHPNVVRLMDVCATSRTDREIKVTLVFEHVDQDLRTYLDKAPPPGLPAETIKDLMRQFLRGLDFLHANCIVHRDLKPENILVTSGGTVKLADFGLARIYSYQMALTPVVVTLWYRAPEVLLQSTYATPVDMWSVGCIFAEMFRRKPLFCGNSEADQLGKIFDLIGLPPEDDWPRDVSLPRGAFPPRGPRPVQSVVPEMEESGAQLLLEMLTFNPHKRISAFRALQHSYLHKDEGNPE

[5] = target: protein kinases (human kinome) (Homo sapiens, UniProt Q2M2I8); type: cell-based; details: experiment wp071
Sequence of protein kinases (human kinome) (Homo sapiens, UniProt Q2M2I8) (Q2M2I8 whole entry): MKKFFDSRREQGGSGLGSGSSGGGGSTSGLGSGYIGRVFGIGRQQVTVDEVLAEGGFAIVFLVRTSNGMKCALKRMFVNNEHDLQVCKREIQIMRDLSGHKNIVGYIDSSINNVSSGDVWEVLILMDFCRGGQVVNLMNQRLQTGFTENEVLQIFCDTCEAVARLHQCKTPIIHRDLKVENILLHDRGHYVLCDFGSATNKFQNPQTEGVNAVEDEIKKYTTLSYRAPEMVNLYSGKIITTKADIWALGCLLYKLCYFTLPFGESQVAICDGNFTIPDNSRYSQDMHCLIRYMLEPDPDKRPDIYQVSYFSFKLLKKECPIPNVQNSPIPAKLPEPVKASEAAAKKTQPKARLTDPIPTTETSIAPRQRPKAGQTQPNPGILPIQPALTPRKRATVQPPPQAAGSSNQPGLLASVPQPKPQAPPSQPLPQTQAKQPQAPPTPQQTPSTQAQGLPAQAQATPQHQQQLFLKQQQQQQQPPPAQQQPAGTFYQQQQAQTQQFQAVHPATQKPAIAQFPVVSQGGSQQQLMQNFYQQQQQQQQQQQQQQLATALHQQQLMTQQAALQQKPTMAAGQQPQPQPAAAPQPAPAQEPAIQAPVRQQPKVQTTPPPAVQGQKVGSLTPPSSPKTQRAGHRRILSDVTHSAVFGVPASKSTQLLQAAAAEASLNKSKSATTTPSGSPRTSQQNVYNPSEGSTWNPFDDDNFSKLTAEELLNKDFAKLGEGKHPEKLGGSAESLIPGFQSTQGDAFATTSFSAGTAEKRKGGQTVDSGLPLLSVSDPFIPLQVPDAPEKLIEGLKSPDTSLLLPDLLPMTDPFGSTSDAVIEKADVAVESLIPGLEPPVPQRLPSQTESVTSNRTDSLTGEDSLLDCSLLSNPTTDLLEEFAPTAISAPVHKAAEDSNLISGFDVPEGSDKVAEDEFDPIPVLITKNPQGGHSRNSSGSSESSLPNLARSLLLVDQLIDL

[6] = target: protein kinases (human kinome) (Homo sapiens, UniProt P16591); type: cell-based; details: for logFC of FER (P16591-1): down; for logFC of FER: FER P16591-1
Sequence of protein kinases (human kinome) (Homo sapiens, UniProt P16591) (P16591 whole entry): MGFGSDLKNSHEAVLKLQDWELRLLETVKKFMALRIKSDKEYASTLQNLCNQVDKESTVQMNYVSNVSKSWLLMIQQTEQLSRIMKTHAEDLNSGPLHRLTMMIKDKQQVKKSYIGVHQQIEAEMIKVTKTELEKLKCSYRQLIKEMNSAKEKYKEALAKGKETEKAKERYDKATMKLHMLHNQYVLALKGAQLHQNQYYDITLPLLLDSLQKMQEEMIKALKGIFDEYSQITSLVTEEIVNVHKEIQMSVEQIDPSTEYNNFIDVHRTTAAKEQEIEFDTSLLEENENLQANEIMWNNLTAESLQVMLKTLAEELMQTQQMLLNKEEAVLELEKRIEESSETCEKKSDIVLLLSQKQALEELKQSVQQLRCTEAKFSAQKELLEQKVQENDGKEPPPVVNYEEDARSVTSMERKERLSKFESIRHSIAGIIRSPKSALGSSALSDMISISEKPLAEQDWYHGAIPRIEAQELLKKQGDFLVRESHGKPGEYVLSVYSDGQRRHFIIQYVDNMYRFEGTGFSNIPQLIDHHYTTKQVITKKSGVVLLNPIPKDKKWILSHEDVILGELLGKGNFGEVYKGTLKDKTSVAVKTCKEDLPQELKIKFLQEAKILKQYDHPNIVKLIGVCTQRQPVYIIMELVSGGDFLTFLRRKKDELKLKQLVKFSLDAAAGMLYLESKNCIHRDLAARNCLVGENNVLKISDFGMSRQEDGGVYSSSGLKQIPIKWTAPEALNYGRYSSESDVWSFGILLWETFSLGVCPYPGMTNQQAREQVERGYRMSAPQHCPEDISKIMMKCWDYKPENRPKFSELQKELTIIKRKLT

[7] = target: protein kinases (human kinome) (Homo sapiens, UniProt P53671); type: cell-based; details: for logFC LIMK2: LIMK2 (P53671), down; for logFC of LIMK2: LIMK2 P53671
Sequence of protein kinases (human kinome) (Homo sapiens, UniProt P53671) (P53671 whole entry): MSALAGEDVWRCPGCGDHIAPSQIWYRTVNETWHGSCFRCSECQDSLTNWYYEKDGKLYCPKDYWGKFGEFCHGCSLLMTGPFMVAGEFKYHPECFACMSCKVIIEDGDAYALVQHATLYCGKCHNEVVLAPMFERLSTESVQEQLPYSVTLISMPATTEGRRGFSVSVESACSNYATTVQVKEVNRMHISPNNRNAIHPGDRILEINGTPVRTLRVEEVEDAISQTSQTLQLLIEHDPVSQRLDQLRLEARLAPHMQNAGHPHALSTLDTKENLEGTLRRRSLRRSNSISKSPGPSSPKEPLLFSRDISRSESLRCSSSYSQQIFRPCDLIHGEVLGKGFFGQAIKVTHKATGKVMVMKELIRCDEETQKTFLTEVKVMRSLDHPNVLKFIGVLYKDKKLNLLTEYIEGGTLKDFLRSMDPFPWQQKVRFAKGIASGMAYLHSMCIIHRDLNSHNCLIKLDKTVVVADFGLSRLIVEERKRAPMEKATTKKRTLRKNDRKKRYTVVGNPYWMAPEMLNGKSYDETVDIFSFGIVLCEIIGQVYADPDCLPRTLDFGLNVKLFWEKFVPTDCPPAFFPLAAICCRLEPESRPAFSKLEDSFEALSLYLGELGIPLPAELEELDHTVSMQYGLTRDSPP

[8] = ACAD10 (Q6JQN1-5), experiment wp084
[9] = experiment wp056, direction of change down
[10] = experiment wp103, direction of change down
[11] = experiment wp107, direction of change down
[12] = experiment wp071, direction of change down
[13] = experiment wp131, direction of change down

CC(=O)c1c(C)c2cnc(Nc3ccc(N4CCN(CCOCCOCCOCCNC(=O)COc5cccc6c5C(=O)N(C5CCC(=O)NC5=O)C6=O)CC4)cn3)nc2n(C2CCCC2)c1=O (stereo not drawn) [BSJ.03.123]
logFC ALDH18A1 ([1]; experiment wp084): −0.5282
logFC FASTKD2 (Q9NYY8) ([2]; Experiment wp084): −0.51
logFC [3, 8]: −0.5275
logFC ([3]; GK P32189-3, experiment wp084): −0.4109
logFC PDK3 ([3]; experiment wp084): −0.5908
logFC PDK3 (Q15120-2) ([3]; experiment wp084): −0.5908
logFC HK1 ([3]; protein HK1 (P19367-3), experiment wp084, down): −0.3484
logFC CDK4 (P11802) ([4]; experiment wp084): −0.9496

CN(C)C(=O)c1cc2cnc(Nc3ccc(N4CCN(CCCCNC(=O)COc5cccc6c5C(=O)N(C5CCC(=O)NC5=O)C6=O)CC4)cn3)nc2n1C1CCCC1 (stereo not drawn) [BSJ.04.132]
logFC ALDH18A1 ([1]; experiment wp084): −0.6568
logFC FASTKD2 (Q9NYY8) ([2]; Experiment wp084): −0.5107
logFC [3, 8]: −0.7484
logFC ([3]; GK P32189-3, experiment wp084): −0.383
logFC PDK3 ([3]; experiment wp084): −0.7397
logFC PDK3 (Q15120-2) ([3]; experiment wp084): −0.7397
logFC CDK4 (P11802) ([4]; experiment wp084): −0.9046

C[C@@H]1C[C@@H](O)c2ncnc(N3CCN(C(=O)[C@H](CNCCCCCCCCCCc4cccc5c4C(=O)N(C4CCC(=O)NC4=O)C5=O)c4ccc(Cl)cc4)CC3)c21 (stereo partly drawn) [INY.03.041.01]
logFC ALDH18A1 ([1]; experiment wp118): −0.376
logFC FASTKD2 (Q9NYY8) ([2]; Experiment wp118): −0.4539
logFC CDK4 (P11802) ([4]; experiment wp118): −0.4019

Cc1cnc(Nc2ccc(N3CCN(CCOCCOCCNC(=O)COc4cccc5c4C(=O)N(C4CCC(=O)NC4=O)C5=O)CC3)cc2)nc1Nc1cccc(S(=O)(=O)NC(C)(C)C)c1 (stereo not drawn) [JWG.118]
logFC ALDH18A1 ([1]; experiment wp071): −0.4227
logFC FASTKD2 (Q9NYY8) ([2]; Experiment wp071): −0.4341
logFC ([3]; GK P32189-3, experiment wp071): −0.4317
logFC AAK1 ([5]; AAK1 (Q2M218-1), down): −3.044
logFC AAK1 ([5]; AAK1, accession Q2M218-1, direction of change down): −3.044

Cc1ccc(C(=O)Nc2ccc(CN3CCN(CCCOCCOCCOCCNC(=O)COc4cccc5c4C(=O)N(C4CCC(=O)NC4=O)C5=O)CC3)c(C(F)(F)F)c2)cc1C#Cc1cnc2cccnn12 (stereo not drawn) [SB1.G.187]
logFC ALDH18A1 ([1]; experiment wp056): −0.4458
logFC FASTKD2 (Q9NYY8) ([2]; Experiment wp056): −0.3881
logFC ABL1 ([3]; experiment wp056): −0.5173
logFC ABL1 ([3]; experiment wp103): −0.754
logFC ABL1 ([3]; experiment wp107): −0.5339
logFC FYN ([3]; Accession P06241-2, experiment wp107): −0.5334
logFC of SRC ([3]; experiment wp056): −0.604
logFC of SRC ([3]; experiment wp103): −0.8282
logFC of SRC ([3]; experiment wp105): −0.5683
logFC of SRC ([3]; experiment wp107): −1.206
logFC MAP3K20 (Q9NYL2-2) ([3]; Experiment wp103): −0.6203
logFC MAP3K20 (Q9NYL2-2) ([3]; Experiment wp107): −0.4387
logFC MAP3K20 (Q9NYL2-2) ([3]; Experiment wp114): −0.7846
logFC of LYN (P07948-2) ([3]; Experiment wp114): −0.4408
logFC ([3]; FER (P16591-3), experiment wp172, direction down): −1.394
logFC of FER ([3]; FER P16591-3, experiment wp172): −1.394
logFC FYN ([3]; FYN P06241-2, experiment wp107): −0.5334
logFC ([3]; GK P32189-3, experiment wp056): −0.4719
logFC LCK [3, 9]: −1.003
logFC LCK [3, 10]: −1.237
logFC LCK [3, 11]: −1.237
logFC ([3]; LYN (P07948-2), experiment wp105): −1.087
logFC ([3]; LYN (P07948-2), experiment wp114): −0.4408
logFC MAPK14 ([3]; MAPK14, accession Q16539-2, experiment wp056, direction of change down): −0.8019
logFC MAPK14 ([3]; MAPK14, accession Q16539-2, experiment wp105, direction of change down): −0.9084
logFC MAPK14 ([3]; MAPK14 Q16539-2, experiment wp056): −0.8019
logFC MAPK14 ([3]; MAPK14 Q16539-2, experiment wp105): −0.9084
logFC PDK3 ([3]; experiment wp056): −0.4827
logFC ABL1 (P00519-2) ([3]; experiment wp056): −0.5173
logFC PDK3 (Q15120-2) ([3]; experiment wp056): −0.4827
logFC LCK (P06239-3) [3, 9]: −1.003
logFC ABL1 (P00519-2) ([3]; experiment wp103): −0.754
logFC MAP3K20 (Q9NYL2-2) ([3]; experiment wp103): −0.6203
logFC LCK (P06239-3) [3, 10]: −1.237
logFC of LYN (P07948-2) ([3]; experiment wp105): −1.087
logFC ABL1 (P00519-2) ([3]; experiment wp107): −0.5339
logFC MAP3K20 (Q9NYL2-2) ([3]; experiment wp107): −0.4387
logFC LCK (P06239-3) [3, 11]: −1.237
logFC MAP3K20 (Q9NYL2-2) ([3]; experiment wp114): −0.7846
logFC of FER (P16591-1) ([6]; Experiment wp056): −1.267
logFC of FER (P16591-1) ([6]; Experiment wp103): −1.672
logFC of FER (P16591-1) ([6]; Experiment wp105): −1.432
logFC of FER (P16591-1) ([6]; Experiment wp107): −1.76
logFC of FER ([6]; experiment wp056): −1.267
logFC of FER ([6]; experiment wp103): −1.672
logFC of FER ([6]; experiment wp105): −1.432
logFC of FER ([6]; experiment wp107): −1.76

Cn1c(=O)c(-c2c(Cl)cccc2Cl)cc2cnc(Nc3ccc(OCCNC(=O)CCCCCCNC(=O)COc4cccc5c4C(=O)N(C4CCC(=O)NC4=O)C5=O)cc3)nc21 (stereo not drawn) [SB1.G.192.1]
logFC ALDH18A1 ([1]; experiment wp081): −0.39
logFC FASTKD2 (Q9NYY8) ([2]; Experiment wp081): −0.3577
logFC LIMK2 ([7]; experiment wp081): −0.371
logFC LIMK2 ([7]; experiment wp131): −0.5544
logFC of LIMK2 ([7]; experiment wp081): −0.371
logFC of LIMK2 ([7]; experiment wp131): −0.5544
logFC ABL1 ([3]; experiment wp071): −1.417
logFC ABL1 ([3]; experiment wp081): −1.189
logFC FYN ([3]; Accession P06241-2, experiment wp071): −1.595
logFC FYN ([3]; Accession P06241-2, experiment wp081): −0.9994
logFC FYN ([3]; Accession P06241-2, experiment wp131): −0.9918
logFC of SRC ([3]; experiment wp071): −2.578
logFC of SRC ([3]; experiment wp081): −2.113
logFC of SRC ([3]; experiment wp131): −2.127
logFC TNK2 (Q07912-3) ([3]; Experiment wp071, direction down): −1.728
logFC TNK2 (Q07912-3) ([3]; Experiment wp081, direction down): −0.9024
logFC FYN ([3]; FYN P06241-2, experiment wp071): −1.595
logFC FYN ([3]; FYN P06241-2, experiment wp081): −0.9994
logFC FYN ([3]; FYN P06241-2, experiment wp131): −0.9918
logFC LCK [3, 12]: −1.767
logFC LCK [3, 13]: −1.701
logFC ([3]; TNK2 (Q07912-3), experiment wp071, direction down): −1.728
logFC ([3]; TNK2 (Q07912-3), experiment wp081, direction down): −0.9024
logFC ABL1 (P00519-2) ([3]; experiment wp071): −1.417
logFC LCK (P06239-3) [3, 12]: −1.767
logFC ABL1 (P00519-2) ([3]; experiment wp081): −1.189
logFC ABL2 (P42684-5) ([3]; experiment wp131): −2.8
logFC of ABL2 (P42684-5) ([3]; experiment wp131): −2.8
logFC LCK (P06239-3) [3, 13]: −1.701
